Assay results from PubChem BioAssay AID652220 (The Scripps Research Institute Molecular Screening Center, 2013).

Molecular target: Serine/threonine-protein phosphatase PP1-alpha catalytic subunit (Homo sapiens) (UniProt P62136)
Assay: PP1 inhibitor potency with OMFP substrate, dose response, biochemical, fluorescence, set 3 (AID 652220)
Conditions: purified PP1alpha, OMFP dephosphorylation

Serine/threonine-protein phosphatase PP1-alpha catalytic subunit (Homo sapiens), sequence (P62136 whole entry, looked up): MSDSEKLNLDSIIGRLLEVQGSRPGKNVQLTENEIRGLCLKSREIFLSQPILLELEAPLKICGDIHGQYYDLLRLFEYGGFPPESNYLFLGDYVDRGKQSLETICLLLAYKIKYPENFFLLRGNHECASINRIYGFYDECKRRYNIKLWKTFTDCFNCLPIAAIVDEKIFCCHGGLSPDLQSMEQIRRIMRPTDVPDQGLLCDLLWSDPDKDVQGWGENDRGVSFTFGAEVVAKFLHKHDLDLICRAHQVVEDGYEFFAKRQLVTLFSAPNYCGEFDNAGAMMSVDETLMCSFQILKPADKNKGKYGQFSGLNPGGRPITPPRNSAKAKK

IC50	SMILES
5.86 µM	CN1CCN([C@H](c2ncccn2)c2ccc3cccnc3c2O)CC1
4.81 µM	CN1CCN([C@@H](c2ncccn2)c2ccc3cccnc3c2O)CC1
